Assays:
MR = target: T1, MR (Homo sapiens, UniProt P08235); assay: MR transcriptional reporter assay, antagonist mode (HEPG2 cells); assay type: cell-based; conditions: 1 nM aldosterone
T1 construct: expressed in transfected cells; host or cells: HEPG2
T1 sequence (P08235 1-984): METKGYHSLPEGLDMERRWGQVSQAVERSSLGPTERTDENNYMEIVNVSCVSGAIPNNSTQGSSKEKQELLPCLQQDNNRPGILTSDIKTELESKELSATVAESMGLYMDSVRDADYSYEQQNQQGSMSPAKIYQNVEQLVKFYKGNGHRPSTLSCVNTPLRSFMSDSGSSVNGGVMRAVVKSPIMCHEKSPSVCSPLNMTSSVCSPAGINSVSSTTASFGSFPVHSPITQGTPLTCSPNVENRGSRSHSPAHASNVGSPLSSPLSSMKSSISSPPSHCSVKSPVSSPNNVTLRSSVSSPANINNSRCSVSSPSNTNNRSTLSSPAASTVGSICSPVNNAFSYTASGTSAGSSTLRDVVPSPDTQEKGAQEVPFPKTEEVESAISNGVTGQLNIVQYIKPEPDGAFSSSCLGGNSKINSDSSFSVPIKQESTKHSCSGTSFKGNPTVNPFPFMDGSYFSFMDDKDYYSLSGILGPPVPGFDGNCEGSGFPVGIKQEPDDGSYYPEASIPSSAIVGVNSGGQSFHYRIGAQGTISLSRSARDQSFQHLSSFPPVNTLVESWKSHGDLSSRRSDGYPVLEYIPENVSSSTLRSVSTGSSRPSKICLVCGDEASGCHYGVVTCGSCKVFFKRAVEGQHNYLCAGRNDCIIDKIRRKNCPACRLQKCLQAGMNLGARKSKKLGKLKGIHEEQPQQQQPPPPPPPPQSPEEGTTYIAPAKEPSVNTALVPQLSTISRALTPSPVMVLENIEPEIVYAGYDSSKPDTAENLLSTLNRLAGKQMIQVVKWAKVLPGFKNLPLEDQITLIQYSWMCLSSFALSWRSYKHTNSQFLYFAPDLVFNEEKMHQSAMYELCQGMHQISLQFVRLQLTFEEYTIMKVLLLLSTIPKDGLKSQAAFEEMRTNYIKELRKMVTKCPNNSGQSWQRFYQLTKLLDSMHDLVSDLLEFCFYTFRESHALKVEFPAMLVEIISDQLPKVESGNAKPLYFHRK

GR = target: T2, GR (Homo sapiens, UniProt P04150); assay: GR transcriptional reporter assay, agonist mode (CV1 cells); assay type: cell-based; conditions: CV-1; % of maximal dexamethasone-stimulated activity
T2 sequence (P04150 1-777): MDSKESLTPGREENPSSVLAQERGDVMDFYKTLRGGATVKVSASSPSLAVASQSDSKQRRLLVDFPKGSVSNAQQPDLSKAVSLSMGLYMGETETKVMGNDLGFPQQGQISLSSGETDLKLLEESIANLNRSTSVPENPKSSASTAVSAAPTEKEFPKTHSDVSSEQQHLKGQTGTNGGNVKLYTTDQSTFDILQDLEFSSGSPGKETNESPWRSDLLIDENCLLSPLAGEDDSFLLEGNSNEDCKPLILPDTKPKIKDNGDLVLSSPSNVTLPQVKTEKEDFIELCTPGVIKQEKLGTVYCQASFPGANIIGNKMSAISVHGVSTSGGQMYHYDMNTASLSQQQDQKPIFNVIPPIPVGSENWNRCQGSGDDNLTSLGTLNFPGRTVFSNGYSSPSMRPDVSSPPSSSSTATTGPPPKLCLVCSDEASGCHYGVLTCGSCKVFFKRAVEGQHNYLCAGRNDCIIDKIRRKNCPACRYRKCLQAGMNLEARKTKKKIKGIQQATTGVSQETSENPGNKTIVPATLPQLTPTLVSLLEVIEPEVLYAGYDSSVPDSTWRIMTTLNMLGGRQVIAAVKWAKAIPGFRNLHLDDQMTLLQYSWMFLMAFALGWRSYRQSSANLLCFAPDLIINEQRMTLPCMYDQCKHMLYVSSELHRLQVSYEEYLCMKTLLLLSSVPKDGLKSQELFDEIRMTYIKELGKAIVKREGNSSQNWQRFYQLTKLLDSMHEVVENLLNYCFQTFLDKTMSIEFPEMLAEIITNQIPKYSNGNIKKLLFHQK
Method: CV1 cells were maintained in MEM supplemented with 10% FBS. Transcriptional assays were performed by seeding 12 mL of cells at a density of 250,000 cells/mL into a T-75 cell culture flask in MEM supplemented with 5% charcoal-stripped serum and allowed to attach overnight. Cells were transiently transfected using FuGENE 6 (Roche Applied Science). […] Transfected cells were incubated overnight then split into four 96-well tissue culture plates and incubated for 4 hr followed by compound addition. […] The final agonist concentration used in the antagonist assays was 10 nM.

[1] = system: Doxycycline-inducible MCF7 cells (Vector); assay: Cell viability, doxycycline-inducible MCF7 cells, vector control; assay type: cell-based; conditions: Homo sapiens, MCF7, 168 h, 7 days; for IC50: 0.1 nM E2, 10 ng/ml doxycycline; for EC50: estrogen-depleted medium, 10 ng/ml doxycycline, read-out: Cell viability EC50, Vector -E2
ERα = ERα (Homo sapiens, UniProt P03372); assay: MCF7 ERα In-Cell Western assay; conditions: MCF7, 4 hr
Sequence of ERα (P03372 whole entry): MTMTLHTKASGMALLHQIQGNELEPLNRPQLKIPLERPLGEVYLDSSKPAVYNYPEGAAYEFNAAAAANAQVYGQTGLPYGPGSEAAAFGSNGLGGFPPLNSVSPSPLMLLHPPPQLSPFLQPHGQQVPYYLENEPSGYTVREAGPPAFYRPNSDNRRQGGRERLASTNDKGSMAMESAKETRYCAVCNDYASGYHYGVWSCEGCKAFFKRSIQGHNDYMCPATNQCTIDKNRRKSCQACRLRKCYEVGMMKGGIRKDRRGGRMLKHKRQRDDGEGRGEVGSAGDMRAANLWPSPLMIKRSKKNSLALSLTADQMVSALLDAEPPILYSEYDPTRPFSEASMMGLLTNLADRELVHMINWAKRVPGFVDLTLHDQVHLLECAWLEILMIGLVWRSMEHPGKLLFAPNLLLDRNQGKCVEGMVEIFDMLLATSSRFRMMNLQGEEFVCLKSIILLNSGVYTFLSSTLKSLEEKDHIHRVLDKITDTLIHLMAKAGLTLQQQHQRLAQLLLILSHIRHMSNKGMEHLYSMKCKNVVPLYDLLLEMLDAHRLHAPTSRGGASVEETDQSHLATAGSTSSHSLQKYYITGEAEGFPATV

ER = system: ER; parameters: method as in van Kruchten et al., 2015; conditions: 500 mg dose, 6/16 patients; ref van Kruchten et al., 2015; cited from earlier work
WHIM20 tumors = assay type: in vivo, mice; conditions: no E2 pellets; GDC-0810 100 mg/kg/day; tamoxifen 60 mg/kg/day; fulvestrant 50 mg/kg days 1, 3 and 7, 25 mg/kg weekly thereafter; 35 days
Excerpt: Figure 8. […] (B) Gene expression analysis of WHIM20 tumors after 4 days of dosing, harvested 8 hr after the final dose. […] (E) WHIM20 tumors were implanted in mice without supplemental 17β-estradiol pellets.
The WHIM20 patient derived xenograft model (WHIM20) was established via direct implantation of metastatic tumor material into immune compromised mice at Washington University in St. Louis ([Li et al., 2013]).
Tumors were established from fragments obtained from Washington University by subcutaneous implantation via 10G trocar into the right flank of 6–7 week old female NOD.CB17-Prkdc^scid/NcrCrl mice (Charles River Laboratories) and NOD.Cg-Prkdc^scid Il2rg^tm1Wjl/SzJ mice (Jackson Laboratories). Tumor line was propagated by serial transplantation. Animals were ovariectomized prior to initiation of treatment.

[2] = system: ZR75-1 ER+ breast cancer tumors; assay: ZR-75-1 xenograft efficacy; assay type: in vivo, mice; conditions: GDC-0810 100 mg/kg/day p.o., 28 days, 0.72 mg E2 pellets

CC/C(=C(\c1ccc(O)cc1)c1ccc(OCCN(C)C)cc1)c1ccccc1 [4-OH Tam, 4-hydroxytamoxifen]
IC50 (MR): 6420 ± 750 nM
Emax (GR): 1.99 ± 1.52%

C[C@]12CC[C@@H]3c4ccc(O)cc4C[C@@H](CCCCCCCCC[S+]([O-])CCCC(F)(F)C(F)(F)F)[C@H]3[C@@H]1CC[C@@H]2O (stereo partly drawn) [Fulvestrant]
IC50 [1]: 7.2 nM
EC50 [1]: 0.8 nM
ERα degradation In-Cell Western Emax (ERα): 6.4 ± 2.0 % Veh.
patients with incomplete inhibition of [18F]fluoroestradiol uptake (ER): 38 % of patients
Tumor growth response, WHIM20 PDX (WHIM20 tumors): tumor growth inhibition

CC/C(=C(/c1ccc(/C=C/C(=O)O)cc1)c1ccc2[nH]ncc2c1)c1ccc(F)cc1Cl [GDC-0810]
Tumor growth response, ZR75-1 xenograft [2]: displayed anti-tumor activity
IC50 [1]: 15 nM
EC50 [1]: 1 nM
Emax (GR): 1.78 ± 1.21%
Tumor growth response, WHIM20 PDX (WHIM20 tumors): induced tumor stasis
